Data as given in patent publication EP0073865B1, “Derivatives of iodothyronine compounds and their use in an assay for the free iodothyronine compounds” (AMERSHAM INTERNATIONAL plc, priority 1981, dated 1983).

Key:
[1] = Stability of the tracer compound in water / assay buffer; assay type: physicochemical; conditions: on dilution into the assay buffer / contact with water
TBG = target: T1, TBG (Homo sapiens, UniProt P05543); assay: Displacement of 125I-T4 tracer from TBG:anti-TBG binding reagent (binding strength relative to T4); conditions: for binding to TBG (in words): I-125 labelled tracer
T1 construct: from tissue; host or cells: human serum (resin stripped)
T1 sequence (P05543 21-415): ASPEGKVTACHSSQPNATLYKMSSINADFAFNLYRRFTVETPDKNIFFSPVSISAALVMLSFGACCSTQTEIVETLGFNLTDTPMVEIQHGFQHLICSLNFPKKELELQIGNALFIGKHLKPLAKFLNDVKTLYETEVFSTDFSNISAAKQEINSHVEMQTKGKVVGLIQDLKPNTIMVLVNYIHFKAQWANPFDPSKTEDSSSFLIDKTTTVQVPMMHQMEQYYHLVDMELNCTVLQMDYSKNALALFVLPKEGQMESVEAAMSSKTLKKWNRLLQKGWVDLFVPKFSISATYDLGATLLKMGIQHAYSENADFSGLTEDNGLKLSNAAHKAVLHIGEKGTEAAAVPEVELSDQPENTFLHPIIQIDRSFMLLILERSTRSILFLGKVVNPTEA
Description: (§1) Method for estimation of T4.EDTA binding strength to TBG and prealbumin relative to that of T4
(§2) Pre-precipitated antiserum (binding reagent) to either TBG or prealbumin is incubated with a serum source of TBG or prealbumin, so that the T4 binding protein is isolated on the binding reagent. Tracer ^125I-T4 is added to the resulting complex and is thus purified. The displacement of the tracer ^125I―T4, by varying concentrations of T4 and T4.EDTA, from the TBG or prealbumin, can then be studied. The results can be used to estimate the differences in binding affinity between T4 and T4.EDTA for the two T4 binding proteins.
• 2.1 Preparation of ^125I-T4:TBG:anti-TBG binding reagent • 2.1.1. Binding reagent preparation • 15% Donkey anti-sheep) in phosphate • 2% TBG Antiserum) buffer + 0.05% BSA
Equal quantities of the above solutions are mixed and rotated overnight at 4° so that the final concentrations in the binding reagent are 7.5% donkey anti-sheep, and 1% TBG antiserum. Centrifugation at 900 rpm, decantation and resuspension in fresh buffer are carried out twice to wash the reagent.
1 ml of resin stripped human serum and 20 ml of the above binding reagents are mixed for 1 hour at room temperature. Centrifugation, decantation and resuspension in fresh buffer (phosphate + 0.05% BSA) are carried out twice.
Typically 10 ml ofTBG:anti-TBG binding reagents, 28 ml of phosphate buffer + 0.05% BSA, and 2 ml of ^125I―T4 tracer solution (0.1 µCi high specific activity T4 per ml in phosphate buffer + 0.05% BSA) are mixed for 1 hour at room temperature. […]
(§3) Thus the percentage bound of the tracer at different T4 and T4.EDTA concentrations, can be determined in the two systems.
(§4) Tracer percentage bound is plotted against T4 and T4.EDTA concentrations, and from these curves an estimate of the non-specific binding can be made. The data can then be re-calculated, using this blank correction, plotted, and the T4 and T4.EDTA concentrations corresponding to a range of tracer percentage bound values can be read off the curve. […]

[2] = system: Antisera (having low T4 cross reactivity); assay: Binding to antisera having low T4 cross reactivity, compared with T3
TBPA = target: T2, TBPA (Homo sapiens, UniProt P02766); assay: Displacement of 125I-T4 tracer from TBPA:anti-TBPA binding reagent (binding strength relative to T4); conditions: binding to TBPA (prealbumin), displacement of 125I-T4, 37°C
T2 construct: from tissue; host or cells: normal serum
Description: as §1, §2
This is prepared as for the anti-TBG binding reagent except that equal volumes of 30% donkey anti-rabbit second antibody and 4% TBPA antiserum solutions were mixed to give final concentrations of 15% donkey anti-rabbit, and 2% anti-TBPA. […]
as §3, §4

T4 antiserum = assay: Affinity constant with respect to T4 antiserum, relative to T4; assay type: binding

COC(=O)[C@H](Cc1cc(I)c(Oc2cc(I)c(O)c(I)c2)c(I)c1)NC(C)=O [N-Acetyl-thyroxine-methyl ester, N-acetyl-thyroxine-methyl ester, reference compound]
stability in water [1]: only gives useful assay results within hours of dilution into the assay buffer | binding to TBG (in words) (TBG): binds appreciably to TBG

O=C(O)CN(CCN(CC(=O)O)CC(=O)NC(Cc1cc(I)c(Oc2ccc(O)c(I)c2)c(I)c1)C(=O)O)CC(=O)O (centres unmarked) [T3.EDTA, 2-carboxy-6,9-dicarboxymethyl-1 3',5' di-iodo-4' (3"-iodo-4"-hydroxy)phenoxy phenyl 4-oxo-3,6,9-triazaundecan-11-oic acid.]
binding to Antisera compared with T3 [2]: equal, or better, binding than T3 itself

O=C(O)CN(CCN(CC(=O)O)CC(=O)NC(Cc1cc(I)c(Oc2cc(I)c(O)c(I)c2)c(I)c1)C(=O)O)CC(=O)O (centres unmarked) [T4.EDTA, 1-{3',5'-di-iodo-4' (3",5"-di-iodo-4"-Hydroxyphenoxy)phenyl} 2-carboxy-6,9-dicarboxymethyl-4-oxo-3,6,9,-triazaundecan-11-oic acid]
stability in water [1]: stable in water | affinity constant as % of the affinity constant of T4 (TBPA): 2.7% | affinity constant with respect to T4 antiserum as % of that of T4 (T4 antiserum): 90.4% | binding to TBG (in words) (TBG): no significant tendency to bind to TBG | affinity constant as % of the affinity constant of T4 (TBG; binding to TBG, displacement of 125I-T4, 37°C): 3.5%
